Assay results taken from ChEMBL document CHEMBL1149386, “Design and synthesis of 5-aryl-pyridone-carboxamides as inhibitors of anaplastic lymphoma kinase” (J Med Chem, 2006).
One block for each compound: values may come before it.

Legend:
[1] = tested on: Jurkat; assay: Antiproliferative activity against human T-cell leukemia Jurkat cell line; format: functional, cell-based
[2] = target: Proto-oncogene tyrosine-protein kinase Src (Homo sapiens, UniProt P12931); assay: Inhibitory activity against Src
[3] = target: Tyrosine-protein kinase ABL1 (Homo sapiens, UniProt P00519); assay: Inhibitory activity against Abl
[4] = target: T1, Receptor-type tyrosine-protein kinase FLT3 (Homo sapiens, UniProt P36888); assay: Inhibitory activity against Flt3
T1 sequence (P36888 whole entry): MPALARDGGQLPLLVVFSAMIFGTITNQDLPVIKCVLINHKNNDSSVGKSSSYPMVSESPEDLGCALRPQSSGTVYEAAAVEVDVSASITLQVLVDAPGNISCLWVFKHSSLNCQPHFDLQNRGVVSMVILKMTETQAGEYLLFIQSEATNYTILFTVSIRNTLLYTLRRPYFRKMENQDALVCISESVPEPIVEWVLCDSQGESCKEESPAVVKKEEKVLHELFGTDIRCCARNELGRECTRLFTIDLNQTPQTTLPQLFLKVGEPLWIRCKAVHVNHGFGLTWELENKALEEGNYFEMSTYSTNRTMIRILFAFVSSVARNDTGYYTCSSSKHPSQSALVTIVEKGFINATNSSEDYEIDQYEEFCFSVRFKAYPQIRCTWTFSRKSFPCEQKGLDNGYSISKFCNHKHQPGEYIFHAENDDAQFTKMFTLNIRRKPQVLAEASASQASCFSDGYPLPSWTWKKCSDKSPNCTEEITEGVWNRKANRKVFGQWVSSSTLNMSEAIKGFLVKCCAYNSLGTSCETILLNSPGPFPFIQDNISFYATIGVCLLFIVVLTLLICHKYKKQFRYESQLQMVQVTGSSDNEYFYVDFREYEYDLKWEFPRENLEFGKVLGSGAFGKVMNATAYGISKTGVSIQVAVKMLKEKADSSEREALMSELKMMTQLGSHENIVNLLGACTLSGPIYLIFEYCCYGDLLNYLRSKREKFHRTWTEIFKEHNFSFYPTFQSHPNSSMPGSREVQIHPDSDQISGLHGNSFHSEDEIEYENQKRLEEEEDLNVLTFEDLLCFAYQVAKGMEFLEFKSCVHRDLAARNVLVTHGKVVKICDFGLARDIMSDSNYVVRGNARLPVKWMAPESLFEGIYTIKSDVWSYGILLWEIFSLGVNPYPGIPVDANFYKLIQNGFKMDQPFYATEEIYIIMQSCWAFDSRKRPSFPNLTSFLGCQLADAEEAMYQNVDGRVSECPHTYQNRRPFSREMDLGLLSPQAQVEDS

[5] = tested on: BaF3; assay: Antiproliferative activity against parental interleukin-3-dependent BaF3 cell line; format: functional, cell-based; conditions: Mus musculus
[6] = target: Bcr/Abl fusion protein (Homo sapiens, UniProt P00519); assay: Antiproliferative activity against human BCR-ABL positive chronic myeloid leukemia K562 cell line; format: functional, cell-based
[7] = target: ALK tyrosine kinase receptor (Homo sapiens, UniProt Q9UM73); assay: Inhibitory activity against ALK
[8] = target: Insulin-like growth factor 1 receptor (Homo sapiens, UniProt P08069); assay: Inhibitory activity against IGF1R
[9] = target: Insulin receptor (Homo sapiens, UniProt P06213); assay: Inhibitory activity against IRK
Insulin receptor, sequence (P06213 28-758 limits assumed): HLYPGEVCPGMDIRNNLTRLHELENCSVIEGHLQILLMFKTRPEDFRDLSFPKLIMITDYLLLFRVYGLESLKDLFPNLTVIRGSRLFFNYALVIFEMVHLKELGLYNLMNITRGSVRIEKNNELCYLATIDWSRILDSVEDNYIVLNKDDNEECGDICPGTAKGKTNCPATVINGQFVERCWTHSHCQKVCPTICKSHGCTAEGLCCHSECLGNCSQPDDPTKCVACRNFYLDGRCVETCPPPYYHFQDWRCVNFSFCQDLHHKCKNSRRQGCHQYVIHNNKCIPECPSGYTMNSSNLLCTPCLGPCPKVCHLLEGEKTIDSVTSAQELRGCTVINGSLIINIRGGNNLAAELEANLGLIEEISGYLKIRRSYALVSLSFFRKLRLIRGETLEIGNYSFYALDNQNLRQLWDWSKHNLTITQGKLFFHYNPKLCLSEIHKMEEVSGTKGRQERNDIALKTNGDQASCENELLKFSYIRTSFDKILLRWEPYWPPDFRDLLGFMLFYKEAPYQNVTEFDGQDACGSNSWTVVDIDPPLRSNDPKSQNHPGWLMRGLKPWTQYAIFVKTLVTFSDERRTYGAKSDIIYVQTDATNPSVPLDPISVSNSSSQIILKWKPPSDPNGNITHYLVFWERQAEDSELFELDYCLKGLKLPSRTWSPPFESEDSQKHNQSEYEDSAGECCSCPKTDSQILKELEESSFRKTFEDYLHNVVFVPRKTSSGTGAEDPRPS
Insulin receptor, sequence (P06213 763-1382 limits assumed): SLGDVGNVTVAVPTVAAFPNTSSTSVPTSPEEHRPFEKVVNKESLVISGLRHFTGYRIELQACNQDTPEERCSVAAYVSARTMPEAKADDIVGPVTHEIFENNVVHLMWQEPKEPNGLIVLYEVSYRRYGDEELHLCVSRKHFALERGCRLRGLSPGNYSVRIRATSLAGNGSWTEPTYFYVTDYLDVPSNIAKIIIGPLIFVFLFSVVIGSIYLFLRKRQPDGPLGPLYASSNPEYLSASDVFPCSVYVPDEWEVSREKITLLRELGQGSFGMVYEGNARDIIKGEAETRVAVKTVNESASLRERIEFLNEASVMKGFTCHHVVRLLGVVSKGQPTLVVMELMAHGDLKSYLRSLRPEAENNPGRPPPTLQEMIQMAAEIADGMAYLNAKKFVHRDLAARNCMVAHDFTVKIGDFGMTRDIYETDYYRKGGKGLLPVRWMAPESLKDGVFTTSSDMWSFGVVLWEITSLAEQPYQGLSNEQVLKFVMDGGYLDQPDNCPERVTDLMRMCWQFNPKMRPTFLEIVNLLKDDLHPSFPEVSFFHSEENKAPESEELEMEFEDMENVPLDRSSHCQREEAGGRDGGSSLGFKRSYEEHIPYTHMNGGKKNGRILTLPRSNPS

ALK tyrosine kinase receptor, sequence (Q9UM73 whole entry): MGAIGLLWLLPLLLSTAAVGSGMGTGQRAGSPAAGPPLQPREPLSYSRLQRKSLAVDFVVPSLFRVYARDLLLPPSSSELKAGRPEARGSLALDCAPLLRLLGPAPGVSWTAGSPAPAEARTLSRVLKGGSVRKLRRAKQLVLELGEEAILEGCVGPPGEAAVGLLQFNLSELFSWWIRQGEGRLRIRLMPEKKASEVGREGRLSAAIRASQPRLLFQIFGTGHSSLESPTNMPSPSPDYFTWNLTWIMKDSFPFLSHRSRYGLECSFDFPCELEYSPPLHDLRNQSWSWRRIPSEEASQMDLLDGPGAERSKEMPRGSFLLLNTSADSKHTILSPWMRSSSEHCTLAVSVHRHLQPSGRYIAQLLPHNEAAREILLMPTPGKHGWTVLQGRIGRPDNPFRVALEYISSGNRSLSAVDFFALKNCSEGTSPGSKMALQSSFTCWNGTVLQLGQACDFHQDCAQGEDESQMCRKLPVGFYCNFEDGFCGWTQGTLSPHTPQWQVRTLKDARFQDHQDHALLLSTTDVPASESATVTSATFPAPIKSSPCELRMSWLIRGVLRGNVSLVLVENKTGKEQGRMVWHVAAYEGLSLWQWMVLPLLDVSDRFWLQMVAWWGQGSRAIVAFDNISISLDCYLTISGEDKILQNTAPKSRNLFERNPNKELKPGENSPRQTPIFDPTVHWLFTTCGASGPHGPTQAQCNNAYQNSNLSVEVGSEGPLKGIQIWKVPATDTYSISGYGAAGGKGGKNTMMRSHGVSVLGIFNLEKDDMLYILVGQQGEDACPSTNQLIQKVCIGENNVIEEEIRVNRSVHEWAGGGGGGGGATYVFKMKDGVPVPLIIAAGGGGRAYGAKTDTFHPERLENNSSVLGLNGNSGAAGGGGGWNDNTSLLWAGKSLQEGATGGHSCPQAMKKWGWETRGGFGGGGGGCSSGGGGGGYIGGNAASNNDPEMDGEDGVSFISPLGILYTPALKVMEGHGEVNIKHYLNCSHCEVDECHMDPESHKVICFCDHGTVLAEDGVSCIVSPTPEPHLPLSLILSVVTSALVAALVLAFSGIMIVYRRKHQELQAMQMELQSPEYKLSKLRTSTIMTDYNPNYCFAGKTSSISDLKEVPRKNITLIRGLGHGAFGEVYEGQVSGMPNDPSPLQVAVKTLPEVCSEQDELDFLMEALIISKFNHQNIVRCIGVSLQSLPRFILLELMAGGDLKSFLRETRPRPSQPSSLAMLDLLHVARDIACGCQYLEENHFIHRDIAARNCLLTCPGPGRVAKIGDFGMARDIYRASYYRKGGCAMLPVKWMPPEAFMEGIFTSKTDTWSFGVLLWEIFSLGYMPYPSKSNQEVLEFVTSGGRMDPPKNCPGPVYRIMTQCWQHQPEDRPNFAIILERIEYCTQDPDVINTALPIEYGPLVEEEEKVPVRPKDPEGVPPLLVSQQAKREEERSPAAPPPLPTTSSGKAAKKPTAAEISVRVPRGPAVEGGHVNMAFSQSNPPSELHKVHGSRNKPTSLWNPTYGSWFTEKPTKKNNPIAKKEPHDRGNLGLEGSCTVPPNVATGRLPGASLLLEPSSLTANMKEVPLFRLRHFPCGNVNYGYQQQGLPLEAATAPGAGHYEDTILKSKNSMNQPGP
Tyrosine-protein kinase ABL1, sequence (P00519 whole entry): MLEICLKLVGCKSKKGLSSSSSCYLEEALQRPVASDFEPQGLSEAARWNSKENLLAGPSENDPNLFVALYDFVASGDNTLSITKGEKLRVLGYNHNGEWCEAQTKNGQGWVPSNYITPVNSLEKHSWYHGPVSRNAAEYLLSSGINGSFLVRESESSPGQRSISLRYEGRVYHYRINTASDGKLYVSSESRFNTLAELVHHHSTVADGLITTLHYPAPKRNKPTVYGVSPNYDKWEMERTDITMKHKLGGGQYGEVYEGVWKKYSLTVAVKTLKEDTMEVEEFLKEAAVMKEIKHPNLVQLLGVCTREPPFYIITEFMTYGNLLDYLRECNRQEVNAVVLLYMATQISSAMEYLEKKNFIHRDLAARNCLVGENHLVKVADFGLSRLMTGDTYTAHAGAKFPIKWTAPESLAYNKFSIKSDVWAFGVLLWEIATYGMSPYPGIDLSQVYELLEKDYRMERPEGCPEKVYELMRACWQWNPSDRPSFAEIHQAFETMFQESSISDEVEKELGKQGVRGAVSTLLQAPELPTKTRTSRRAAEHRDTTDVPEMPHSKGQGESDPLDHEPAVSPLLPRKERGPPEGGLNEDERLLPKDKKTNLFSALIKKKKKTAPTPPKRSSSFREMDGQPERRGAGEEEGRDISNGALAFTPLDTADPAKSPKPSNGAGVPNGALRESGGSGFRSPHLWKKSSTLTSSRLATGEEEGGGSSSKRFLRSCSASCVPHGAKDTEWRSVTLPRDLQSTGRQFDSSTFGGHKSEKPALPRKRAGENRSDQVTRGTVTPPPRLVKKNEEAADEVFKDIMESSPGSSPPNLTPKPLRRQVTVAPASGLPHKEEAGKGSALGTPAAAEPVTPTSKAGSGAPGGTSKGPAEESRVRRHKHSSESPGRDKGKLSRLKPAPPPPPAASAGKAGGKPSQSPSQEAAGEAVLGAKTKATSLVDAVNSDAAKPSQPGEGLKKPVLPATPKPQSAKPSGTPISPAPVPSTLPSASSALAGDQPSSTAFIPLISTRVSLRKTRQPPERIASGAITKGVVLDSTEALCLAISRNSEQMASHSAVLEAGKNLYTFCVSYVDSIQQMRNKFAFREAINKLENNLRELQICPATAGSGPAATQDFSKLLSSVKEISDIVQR
Proto-oncogene tyrosine-protein kinase Src, sequence (P12931 2-536 limits assumed): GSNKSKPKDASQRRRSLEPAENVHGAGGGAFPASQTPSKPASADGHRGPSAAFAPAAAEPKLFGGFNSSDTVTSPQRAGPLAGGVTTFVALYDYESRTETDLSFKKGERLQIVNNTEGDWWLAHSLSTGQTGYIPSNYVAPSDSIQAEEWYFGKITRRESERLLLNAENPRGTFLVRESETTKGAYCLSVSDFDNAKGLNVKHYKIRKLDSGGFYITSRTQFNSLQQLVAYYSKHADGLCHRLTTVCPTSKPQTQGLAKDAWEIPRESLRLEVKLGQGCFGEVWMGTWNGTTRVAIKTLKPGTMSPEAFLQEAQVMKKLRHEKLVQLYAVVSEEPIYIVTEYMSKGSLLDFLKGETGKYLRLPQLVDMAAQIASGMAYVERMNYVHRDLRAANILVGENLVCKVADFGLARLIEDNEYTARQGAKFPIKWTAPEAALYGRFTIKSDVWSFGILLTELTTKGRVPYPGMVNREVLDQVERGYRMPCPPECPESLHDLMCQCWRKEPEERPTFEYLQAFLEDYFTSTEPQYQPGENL

IC50 [1]: 9.2 µM | IC50 [2]: > 20 µM | IC50 [3]: > 20 µM | IC50 [4]: > 20 µM | IC50 [6]: 12.9 µM | IC50 [7]: 0.9 µM | Ki [7]: 0.5 µM | IC50 [8]: > 20 µM
SMILES: CN1CCN(Cc2ccc(NC(=O)c3cc(-c4ccc5c(c4)OCO5)cnc3O)cc2)CC1
IC50 [5]: > 25 µM

IC50 [7]: 20.3 µM | IC50 [9]: > 40 µM
SMILES: COc1ncc(-c2ccc3c(c2)OCO3)cc1C(=O)Nc1ccc(CN2CCN(C)CC2)cc1

IC50 [7]: 3.7 µM | IC50 [9]: 32.5 µM
SMILES: CN1CCN(Cc2ccc(N(C)C(=O)c3cc(-c4ccc5c(c4)OCO5)cnc3O)cc2)CC1

IC50 [7]: 26.8 µM | IC50 [9]: 27.3 µM
SMILES: CN1CCN(Cc2ccc(NC(=O)c3cc(-c4ccc5c(c4)OCO5)cnc3Cl)cc2)CC1

IC50 [7]: 14.5 µM | IC50 [9]: > 40 µM
SMILES: Cc1cc(CN2CCN(C)CC2)ccc1NC(=O)c1cc(-c2ccc3c(c2)OCO3)cnc1O

IC50 [1]: 4.7 µM | IC50 [2]: > 20 µM | IC50 [3]: > 20 µM | IC50 [4]: 4 µM | IC50 [6]: 9.5 µM | IC50 [7]: 0.4 µM | Ki [7]: 0.2 µM
SMILES: CN1CCN(CCc2ccc(NC(=O)c3cc(-c4ccc5c(c4)OCO5)cnc3O)cc2)CC1
IC50 [5]: 18 µM

The remaining lines, values behind:

SMILES: CN1CCN(CCCc2ccc(NC(=O)c3cc(-c4ccc5c(c4)OCO5)cnc3O)cc2)CC1
IC50 [1]: 9.3 µM | IC50 [2]: > 20 µM | IC50 [3]: > 20 µM | IC50 [4]: > 20 µM | IC50 [5]: 16.2 µM | IC50 [6]: 14.6 µM | IC50 [7]: 1.3 µM | Ki [7]: 1.1 µM | IC50 [8]: > 20 µM | IC50 [9]: 10.1 µM | Ki [9]: 9 µM

SMILES: CN1CCN(Cc2ccc(NC(=O)c3cc(-c4ccc5c(c4)OCO5)cn(C)c3=O)cc2)CC1
IC50 [7]: > 40 µM | IC50 [9]: > 40 µM

SMILES: COc1cc(CN2CCN(C)CC2)ccc1NC(=O)c1cc(-c2ccc3c(c2)OCO3)cnc1O
IC50 [7]: 13.8 µM | IC50 [9]: > 40 µM

SMILES: CN1CCN(c2ccc(NC(=O)c3cc(-c4ccc5c(c4)OCO5)c[nH]c3=O)cc2)CC1
IC50 [2]: > 20 µM | IC50 [3]: > 20 µM | IC50 [4]: 5 µM | IC50 [6]: 3.8 µM

SMILES: CN1CCN(Cc2ccc(NC(=O)c3cc(-c4ccc5nccnc5c4)c[nH]c3=O)cc2)CC1
IC50 [7]: 5.5 µM | IC50 [9]: 7 µM

SMILES: CN1CCN(Cc2ccc(NC(=O)c3cc(-c4ccncc4)cnc3O)cc2)CC1
IC50 [7]: 19.5 µM | IC50 [9]: > 40 µM

SMILES: Cc1nc2cc(-c3cnc(O)c(C(=O)Nc4ccc(CN5CCN(C)CC5)cc4)c3)ccc2s1
IC50 [7]: 3.8 µM | IC50 [9]: 16 µM

SMILES: COc1cc(-c2c[nH]c(=O)c(C(=O)Nc3ccc(CN4CCN(C)CC4)cc3)c2)cc(OC)c1OC
IC50 [7]: 7.5 µM | IC50 [9]: 33.5 µM

SMILES: COc1ccc(-c2c[nH]c(=O)c(C(=O)Nc3ccc(CN4CCN(C)CC4)cc3)c2)cn1
IC50 [7]: 3 µM | IC50 [9]: 13.8 µM
